Experimental data as given in patent publication US20230147712A1, “OLEYL PHOSPHOCHOLINE CONTAINING GRANULATES” (Oblita Therapeutics BVBA, priority 2020, published 2023).

Assay: Hygroscopicity of oleyl phosphocholine (water absorption)
Format: physicochemical
Settings: exposed to 90% RH at 25° C.
Experimental: The development of solid dosage formulations of oleyl phosphocholine, and specifically the development of tablets, is complicated by the low melting point (56.3° C.), high hygroscopicity (absorbing 41.67 weight percent of water when exposed to 90% RH at 25° C.) and irregular particle size and shape of oleyl phosphocholine. These characteristics make it hard to obtain homogeneous, dry powders for tableting.

CCCCCCCC/C=C\CCCCCCCCOP(=O)([O-])OCC[N+](C)(C)C [oleyl phosphocholine]
hygroscopicity: water absorbed: 41.67 weight percent
